Activity calls are given as the source filed them. No cut-off for these calls is given here.
Assays:
[1] = target: T1, Histone-lysine N-methyltransferase NSD2 (Homo sapiens, UniProt O96028); assay: Inhibition of recombinant human NSD2 (941 to 1240 residues) using SAM as substrate incubated for 3 hrs by AlphaLISA assay
T1 sequence (O96028 whole entry): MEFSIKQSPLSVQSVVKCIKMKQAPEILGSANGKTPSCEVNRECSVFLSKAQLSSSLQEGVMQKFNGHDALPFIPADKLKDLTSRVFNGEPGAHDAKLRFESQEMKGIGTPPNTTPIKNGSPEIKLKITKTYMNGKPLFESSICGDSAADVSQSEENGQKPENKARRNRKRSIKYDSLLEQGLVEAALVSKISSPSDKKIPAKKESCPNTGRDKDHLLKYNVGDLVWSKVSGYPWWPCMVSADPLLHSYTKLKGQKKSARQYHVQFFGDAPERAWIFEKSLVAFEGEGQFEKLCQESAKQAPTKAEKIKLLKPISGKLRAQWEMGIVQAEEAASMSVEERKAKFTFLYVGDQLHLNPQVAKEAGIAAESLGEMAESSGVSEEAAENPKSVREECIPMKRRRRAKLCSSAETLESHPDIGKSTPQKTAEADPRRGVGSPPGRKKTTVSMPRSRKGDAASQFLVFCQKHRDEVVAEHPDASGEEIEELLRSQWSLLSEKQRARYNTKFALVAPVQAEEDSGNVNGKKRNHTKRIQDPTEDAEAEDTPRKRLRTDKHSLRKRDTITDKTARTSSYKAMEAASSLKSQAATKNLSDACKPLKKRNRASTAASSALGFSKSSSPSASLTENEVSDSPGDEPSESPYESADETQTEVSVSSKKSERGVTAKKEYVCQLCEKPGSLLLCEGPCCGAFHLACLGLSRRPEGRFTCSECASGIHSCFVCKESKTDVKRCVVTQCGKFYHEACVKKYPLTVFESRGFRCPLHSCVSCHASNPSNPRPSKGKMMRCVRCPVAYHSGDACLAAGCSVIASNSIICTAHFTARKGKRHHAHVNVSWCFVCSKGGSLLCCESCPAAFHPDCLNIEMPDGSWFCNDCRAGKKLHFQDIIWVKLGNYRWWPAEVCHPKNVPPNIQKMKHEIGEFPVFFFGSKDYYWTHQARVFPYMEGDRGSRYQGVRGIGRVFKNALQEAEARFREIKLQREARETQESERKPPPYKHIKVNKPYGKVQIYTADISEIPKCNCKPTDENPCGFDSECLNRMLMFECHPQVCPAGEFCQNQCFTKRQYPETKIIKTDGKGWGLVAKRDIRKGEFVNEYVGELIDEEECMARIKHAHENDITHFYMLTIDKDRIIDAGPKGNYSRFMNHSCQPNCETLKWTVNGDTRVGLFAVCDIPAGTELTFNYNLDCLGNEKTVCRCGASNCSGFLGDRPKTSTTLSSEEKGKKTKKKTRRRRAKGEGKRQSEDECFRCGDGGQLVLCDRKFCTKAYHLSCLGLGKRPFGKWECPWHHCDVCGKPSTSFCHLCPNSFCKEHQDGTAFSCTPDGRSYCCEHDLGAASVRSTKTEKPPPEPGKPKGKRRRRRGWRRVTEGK

[2] = Cmax in ICR mouse at 3 mg/kg, po measured for 24 hrs by LC-MS/MS analysis; assay type: ADME, organism-based; set-up: dose 3 mg/kg, time 24 hrs, route po; details: in vivo
[3] = AUClast in ICR mouse at 3 mg/kg, po measured for 24 hrs by LC-MS/MS analysis; assay type: ADME, organism-based; set-up: dose 3 mg/kg, time 24 hrs, route po; details: in vivo
[4] = Observed clearance in ICR mouse at 1 mg/kg, iv measured for 24 hrs by LC-MS/MS analysis; assay type: ADME, organism-based; details: in vivo
[5] = target: Histone-lysine N-methyltransferase NSD2 (Homo sapiens) (UniProt O96028); assay: Binding affinity to human recombinant NSD2 (941 to 1240 residues) at 200 uM by saturation transfer difference based NMR analysis
[6] = target: Histone-lysine N-methyltransferase NSD2 (Homo sapiens) (UniProt O96028); assay: Binding affinity to human recombinant NSD2 (941 to 1240 residues) at 200 uM by CPMG based NMR analysis
[7] = tested on: OCI-AML2; assay: Antiproliferative activity against human OCI-AML2 cells harboring wild type NSD2 assessed as inhibition of cell growth incubated for 6 days by CCK-8 assay; assay type: functional, cell-based; details: OCI-AML2, 144 h
[8] = tested on: MOLM-13; assay: Antiproliferative activity against human MOLM-13 cells harboring wild type NSD2 assessed as inhibition of cell growth incubated for 6 days by CCK-8 assay; assay type: functional, cell-based; details: MOLM-13, 144 h
[9] = tested on: U2932; assay: Antiproliferative activity against human U2932 cells assessed as inhibition of cell growth incubated for 6 days by CCK-8 assay; assay type: functional, cell-based; details: U2932, 144 h
[10] = Antiproliferative activity against human MINO cells assessed as inhibition of cell growth incubated for 6 days by CCK-8 assay; assay type: functional, cell-based; details: 144 h
[11] = target: Ras-related protein R-Ras2 (Homo sapiens) (UniProt P62070); assay: Inhibition of RRAS2 transcriptional activation in human KMS-11 cells assessed as reduction in RRAS2 mRNA expression at 0.5 uM by qRT-PCR analysis; assay type: cell-based
Chain of Ras-related protein R-Ras2 (Homo sapiens) (P62070 whole entry): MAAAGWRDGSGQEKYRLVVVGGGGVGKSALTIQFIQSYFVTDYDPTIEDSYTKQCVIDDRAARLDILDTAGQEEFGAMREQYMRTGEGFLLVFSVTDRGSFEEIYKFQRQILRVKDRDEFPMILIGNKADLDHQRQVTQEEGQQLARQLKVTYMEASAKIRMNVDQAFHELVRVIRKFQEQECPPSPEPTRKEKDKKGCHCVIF

[12] = target: Protransforming growth factor alpha (Homo sapiens) (UniProt P01135); assay: Inhibition of TGFA transcriptional activation in human KMS-11 cells assessed as reduction in H3K36me2 level in promoter region by ChIP-qPCR analysis; assay type: cell-based
Chain of Protransforming growth factor alpha (Homo sapiens) (P01135 whole entry): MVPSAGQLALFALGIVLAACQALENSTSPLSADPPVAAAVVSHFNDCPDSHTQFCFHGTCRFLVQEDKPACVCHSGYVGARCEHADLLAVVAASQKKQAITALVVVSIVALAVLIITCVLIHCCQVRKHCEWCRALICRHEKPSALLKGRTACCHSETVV

[13] = target: Hepatocyte growth factor receptor (Homo sapiens) (UniProt P08581); assay: Inhibition of MET transcriptional activation in human KMS-11 cells assessed as reduction in H3K36me2 level in promoter region by ChIP-qPCR analysis; assay type: cell-based
Chain of Hepatocyte growth factor receptor (Homo sapiens) (P08581 whole entry): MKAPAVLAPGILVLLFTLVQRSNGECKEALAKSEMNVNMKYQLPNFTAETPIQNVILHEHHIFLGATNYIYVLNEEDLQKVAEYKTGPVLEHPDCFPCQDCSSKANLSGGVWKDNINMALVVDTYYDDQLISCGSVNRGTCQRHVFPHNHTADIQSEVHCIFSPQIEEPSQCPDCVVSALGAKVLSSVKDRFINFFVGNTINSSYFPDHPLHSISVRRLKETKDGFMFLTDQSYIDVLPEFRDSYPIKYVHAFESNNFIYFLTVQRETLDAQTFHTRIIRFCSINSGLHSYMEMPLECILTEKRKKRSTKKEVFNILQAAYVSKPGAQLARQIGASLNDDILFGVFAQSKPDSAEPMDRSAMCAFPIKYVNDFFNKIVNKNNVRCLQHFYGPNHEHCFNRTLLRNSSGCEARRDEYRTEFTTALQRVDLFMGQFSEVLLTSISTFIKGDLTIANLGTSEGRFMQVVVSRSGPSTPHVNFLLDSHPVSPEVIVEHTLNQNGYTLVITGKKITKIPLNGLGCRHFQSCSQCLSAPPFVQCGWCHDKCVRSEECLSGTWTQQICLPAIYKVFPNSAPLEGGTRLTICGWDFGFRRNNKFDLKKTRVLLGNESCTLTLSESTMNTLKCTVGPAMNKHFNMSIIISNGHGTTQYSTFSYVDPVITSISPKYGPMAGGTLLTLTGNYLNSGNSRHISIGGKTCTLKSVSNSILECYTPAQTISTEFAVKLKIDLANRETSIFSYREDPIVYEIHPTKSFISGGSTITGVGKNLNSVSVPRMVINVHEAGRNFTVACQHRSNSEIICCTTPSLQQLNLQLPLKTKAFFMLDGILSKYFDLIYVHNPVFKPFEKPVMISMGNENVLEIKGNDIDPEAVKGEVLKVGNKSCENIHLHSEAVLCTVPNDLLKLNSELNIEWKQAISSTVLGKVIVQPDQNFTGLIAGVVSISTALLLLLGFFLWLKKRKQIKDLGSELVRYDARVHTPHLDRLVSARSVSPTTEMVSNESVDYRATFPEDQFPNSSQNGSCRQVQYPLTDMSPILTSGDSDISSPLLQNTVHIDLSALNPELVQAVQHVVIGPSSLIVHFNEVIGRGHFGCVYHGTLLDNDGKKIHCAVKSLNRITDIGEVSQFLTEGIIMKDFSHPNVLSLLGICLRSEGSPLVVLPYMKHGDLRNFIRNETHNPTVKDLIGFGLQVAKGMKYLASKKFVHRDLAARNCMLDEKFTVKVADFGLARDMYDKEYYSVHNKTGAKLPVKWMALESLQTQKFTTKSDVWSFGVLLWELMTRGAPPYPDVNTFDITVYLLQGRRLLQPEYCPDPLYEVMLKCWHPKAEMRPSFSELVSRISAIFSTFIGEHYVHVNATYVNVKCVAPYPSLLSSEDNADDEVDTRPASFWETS

[14] = tested on: KMS-11; assay: Induction of apoptosis in human KMS-11 cells assessed as live cells at 0.2 uM incubated for 72 hrs by Annexin V-FITC/PI staining based flow cytometry analysis (reference value: 83.1%); assay type: functional
[15] = tested on: KMS-11; assay: Induction of apoptosis in human KMS-11 cells assessed as dead cells at 0.2 uM incubated for 72 hrs by Annexin V-FITC/PI staining based flow cytometry analysis (reference value: 6.48%); assay type: functional
[16] = tested on: KMS-11; assay: Induction of apoptosis in human KMS-11 cells assessed as live cells at 0.5 uM incubated for 72 hrs by Annexin V-FITC/PI staining based flow cytometry analysis (reference value: 83.1%); assay type: functional
[17] = tested on: KMS-11; assay: Induction of apoptosis in human KMS-11 cells assessed as early apoptotic cells at 0.5 uM incubated for 72 hrs by Annexin V-FITC/PI staining based flow cytometry analysis (reference value: 3.96%); assay type: functional
[18] = tested on: KMS-11; assay: Induction of apoptosis in human KMS-11 cells assessed as late apoptotic cells at 0.5 uM incubated for 72 hrs by Annexin V-FITC/PI staining based flow cytometry analysis (reference value: 6.47%); assay type: functional
[19] = tested on: KMS-11; assay: Induction of apoptosis in human KMS-11 cells assessed as late apoptotic cells at 0.8 uM incubated for 72 hrs by Annexin V-FITC/PI staining based flow cytometry analysis (reference value: 6.47%); assay type: functional
[20] = tested on: KMS-11; assay: Antitumor activity against human KMS-11 cells xenografted in SCID mouse assessed as tumor growth inhibition at 75 mg/kg, po administered daily for 21 days and measured every 3 days relative to control; assay type: functional; details: KMS-11, 504 h, time 21 day, read-out: TGI

## CC#CC(=O)NC12CC(NC3=C(Cl)C(=O)c4ncccc4C3=O)(C1)C2
[1]
  IC50: 0.23 µM
[2]
  Cmax: 4780 ng/mL
[3]
  AUC(0-t) at 24 h: 42700 ng·h/mL
[4]
  clearance: 3.8 mL/min/kg
[5]
  Activity: Active
[6]
  Activity: Active
[7]
  IC50: 2.6 µM
[8]
  IC50: 3.17 µM
[9]
  IC50: 9.11 µM
[10]
  IC50: 9.9 µM
[11]
  inhibition: Active
[12]
  inhibition: Active
[13]
  inhibition: Active
[14]
  Activity: 81.3%
[15]
  Activity: 6.54%
[16]
  Activity: 63.8%
[17]
  Activity: 14.1%
[18]
  Activity: 15.7%
[19]
  Activity: 19.7%
[20]
  inhibition in vivo at 75 mg/kg: 56%

Source: ChEMBL document CHEMBL5316318, “Structural Modification and Pharmacological Evaluation of Substituted Quinoline-5,8-diones as Potent NSD2 Inhibitors” (J Med Chem, 2023)
